Results from US9005670B2, “Use of histone acetyltransferase inhibitors as novel anti-cancer therapies” (The Johns Hopkins University, priority 2010, dated 2015).

What was measured:
WM35 melanoma cells = assay: senescence-associated beta galactosidase staining; format: cell-based, human; details: 72 hours, low and high serum concentrations
Protocol: FIG. 14A includes scatter plots. […] WM35 melanoma cells were also treated with camptothecin as a positive control for apoptosis. FIGS. 14B and 14C include images of the treated cells stained for senescence-associated beta galactosidase.

H247 glioblastoma cells = assay: AlamarBlue growth inhibition, H247; format: cell-based; details: H247, 72 hours
Protocol: Dose response curves were generated using the AlamarBlue® assay (Invitrogen, Carlsbad, Calif.).
When inhibition was assessed using the AlamarBlue® assay (Invitrogen, Carlsbad, Calif.), cells were initially seeded at 500 cells per well in a 96-well plate. AlamarBlue® is a non-toxic reagent that measures cellular metabolic activity. Its main ingredient is resazurin, a non-fluorescent indicator dye that is reduced to bright red-fluorescent resorufin in metabolically active cells. AlamarBlue® was added to growth medium at 1/10 of the total volume (e.g., 20 μl in 200 μl total volume). […] Fluorescence reading was taken from the same plate every day for 5 days to ensure that the saturation point was not reached. Fluorescence intensity is proportional to the number of live cells in the plate.

Rtt109/Vps75 complex = molecular target: T1, Rtt109/Vps75 complex (Saccharomyces cerevisiae, UniProt Q07794); assay: Rtt109 direct radioactive HAT assay; format: biochemical; details: 10 μM compound; read-out: Percent inhibition of acetyltransferase, Rtt109
T1 construct: made in house
T1 sequence (Q07794 whole entry): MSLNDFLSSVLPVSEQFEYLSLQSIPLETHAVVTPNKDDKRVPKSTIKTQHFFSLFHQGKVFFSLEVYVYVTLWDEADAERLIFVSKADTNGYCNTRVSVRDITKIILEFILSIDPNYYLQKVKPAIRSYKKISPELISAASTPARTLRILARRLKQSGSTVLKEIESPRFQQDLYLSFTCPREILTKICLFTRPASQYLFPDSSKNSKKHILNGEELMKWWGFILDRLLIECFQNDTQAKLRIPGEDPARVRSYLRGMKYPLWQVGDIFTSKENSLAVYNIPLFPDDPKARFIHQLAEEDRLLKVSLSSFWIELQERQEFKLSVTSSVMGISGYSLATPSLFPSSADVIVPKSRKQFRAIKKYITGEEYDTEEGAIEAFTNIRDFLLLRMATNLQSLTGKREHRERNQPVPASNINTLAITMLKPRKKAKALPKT
T1 sequence (P53853 whole entry partner): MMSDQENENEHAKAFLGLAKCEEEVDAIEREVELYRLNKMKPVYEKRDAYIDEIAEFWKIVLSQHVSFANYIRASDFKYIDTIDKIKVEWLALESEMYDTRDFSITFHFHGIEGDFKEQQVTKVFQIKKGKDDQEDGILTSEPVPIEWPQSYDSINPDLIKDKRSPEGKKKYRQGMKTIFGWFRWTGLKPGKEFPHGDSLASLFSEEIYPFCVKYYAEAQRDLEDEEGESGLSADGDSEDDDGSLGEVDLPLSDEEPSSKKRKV
Protocol: PCAF reactions were performed in 100 mM HEPES, pH 7.9, and contained 200 μM TPP, 5 mM MgCl2, 1 mM DTT, 50 mM NaCl, 0.05 mg/mL BSA, 200 μM NAD, 2.4 mM α-KG, 30 μM acetyl-CoA, 0.037 units α-KGDH, 3.3% DMSO, and 10 μM inhibitor. Reactions took place at 30° C. Reactions were initiated by addition of 10 nM PCAF and were followed at 340 nm over the linear portion of the curve below 10% turnover. AANAT reactions were performed in 100 mM NH4 OAc, pH 6.8, and contained 200 μM TPP, 5 mM MgCl2, 1 mM DTT, 50 mM NaCl, 0.05 mg/mL BSA, 200 μM NAD, 2.4 mM α-KG, 200 μM AcCoA, 0.1 units α-KGDH, 3.3% DMSO, and 10 μM inhibitor. Reactions took place at 25° C. Reactions were initiated with addition of 65 nM AANAT, and followed at 340 nm, as above. Percent inhibition values were compared to those with p300, which were repeated using the protocol given above. […]
HAT assays with yeast GCN5, SAS complex, MOZ, and Rtt109/Vps75 complex used the direct radioactive assay described above. […] The amount of enzyme used in each assay was estimated by comparing Coomassie Blue staining of samples with bovine serum albumin standards, analyzed by SDS-PAGE. […] The rate of ^14C-incorporation into histone H3 was quantified by autoradiography. […]

[1] = tested on: histone H3 and H4 acetylation in C3H 10T1/2 mouse fibroblasts; assay: histone acetylation Western blot in mouse cells; format: cell-based; details: 25 μM, 1-3 hours
Source text: Histones in mammalian cells show characteristic rates of turnover of acetylation, with a majority showing slower rates and a very minor fraction showing very fast turnover. This latter fraction has been associated with gene activation, and is defined by rapid hyperacetylation in the presence of deacetylase inhibitors such as Trichostatin A (TSA). In addition to SDS gels (FIG. 9A), Acid-Urea gels (AU, FIG. 9B) were used, on which loss of a positive charge upon lysine acetylation retards migration, producing a ladder of bands corresponding to integral changes in acetylation.
C3H 10T1/2 mouse fibroblasts were grown in DMEM with 10% FCS at 37° C. with 5% CO2. Confluent cultures were rendered quiescent in DMEM with 0.5% FCS for 18-20 h prior to treatment. […] Antibodies were used at the following concentrations: total H3 (1:10000; ab7834; Abcam); H4K12ac (1:2500; 06-761; Upstate). Rabbit anti-H3K9ac (1:10000) antibodies were generated in-house. Histones were isolated from cells by acid extraction, separated by SDS and acid-urea polyacrylamide gel electrophoresis and analyzed by Western blotting.

NIH3T3 cells = assay: NIH3T3 cell proliferation; format: cell-based
Protocol: Cells were treated for 24 hours and proliferation was measured via ^3H-thymidine incorporation pre- and post-treatment. Data for each cell line were normalized to ^3H counts measured pre-treatment. […] Ac-DDDD-Tat is a control peptide for Lys-CoA-Tat. WM35, WM983A, and 1205Lu are melanoma cell lines representing three stages of cancer progression: radial, vertical, and metastatic, respectively.

[2] = tested on: NCI-60 panel of tumor cell lines; assay: NCI-60 DTP human tumor cell line screen; format: cell-based; details: 48 hours
Protocol: The in vitro cancer screen was performed at the National Cancer Institute as described in detail at http://dtp.nci.nih.gov/branches/btb/ivelsp.html.
Briefly, cells were plated in 96 well plates at a concentration of 5,000-40,000 cells/well. […] Using the absorbance measurements [time zero, (Tz), control growth, (C), and test growth in the presence of drug at the five concentration levels (Ti)], the percentage growth was calculated at each of the drug concentrations levels. Percentage growth inhibition was calculated as: [(Ti−Tz)/(C−Tz)]×100 for concentrations for which Ti≧Tz [(Ti−Tz)/Tz]×100 for concentrations for which Ti<Tz where Tz is time zero, C is control growth, and Ti is test growth in the presence of drug at the five concentration levels.

IC50 (H247 glioblastoma cells): 14.4 µM
inhibition at 10 µM (Rtt109/Vps75 complex): < 10%
SMILES: CC1=NN(c2ccc(C(=O)O)cc2)C(=O)C1=Cc1ccc(-c2cc(C)c(C)cc2[N+](=O)[O-])o1 [Compound C646, 4-(4,5-dihydro-3-methyl-4-((5-(4,5-dimethyl-2-nitrophenyl)furan-2-yl)methylene)-5-oxopyrazol-1-yl)benzoic acid]
senescence (WM35 melanoma cells): induced sensecence in WM35 cells
basal acetylation levels of H3 and H4 [1]: slightly diminished
TSA-inducible acetylation of histones H3 and H4 ([1]; TSA 33 nM final 30 min): virtually completely inhibited
effect on cell proliferation (NIH3T3 cells): does not have a significant inhibitory effect
growth inhibition / cell death [2]: significant growth inhibition and/or tumor cell death
